Data as given in patent US20210070747A1, “2(1H)-QUINOLINONE DERIVATIVE” (priority 2017, published 2021).
Read-outs that look alike come from different tables or passages of the source.

How the values were obtained:
[1] = tested on: E. Coli ATCC 25922; experiment: Test for evaluating antibacterial activity (E. coli), broth microdilution MIC; type: cell-based; conditions: Escherichia coli, ATCC25922; 35° C., 18 hours, cation-adjusted Mueller-Hinton medium
Method: Minimum inhibitory concentration (MIC) was measured using the broth microdilution method described below in accordance with a modification of the standard method specified by CLSI (Clinical & Laboratory Standards Institute).
Bacterial cells under test were cultured overnight on a heart infusion agar medium, scraped off and suspended at a concentration equivalent to McFarland 0.5 turbidity; the suspension thus obtained was diluted 10 folds to give a liquid inoculum. The inoculum (0.005 mL) was inoculated on a cation-adjusted Mueller-Hinton medium containing the analyte compound and cultured at 35° C. for 18 hours. A minimum drug concentration at which no bacterial growth was macroscopically visible was designated MIC.

[2] = target: T1, E. coli DNA gyrase (Escherichia coli, UniProt P0AES6); experiment: Test for evaluating the activity of inhibiting E. coli DNA gyrase enzyme (Method 2, supercoiling, recombinant gyrA/gyrB complex); type: biochemical
T1 construct: made in house; host or cells: E. coli BL21 (DE3)
Method: The enzymatic activity of E. coli DNA gyrase was measured by a method comprising reacting DNA gyrase and its substrate, relaxed pBR322 (Inspiralis), in the presence of ATP and detecting the post-reaction supercoiled pBR322/relaxed pBR322 ratio with H19.
Specifically, to 1 ng/μL of relaxed pBR322, E. coli DNA gyrase enzyme (the gyrA or gyrB gene was incorporated into the pET15b plasmid and after expressing them in E. coli BL21 (DE3), purification was performed using a Ni-NTA column to form a complex at room temperature) was added at a final concentration of 0.135 nmol/mL and the mixture was incubated for 60 minutes at room temperature. This reaction was carried out in 20 mmol/L tris-HCl buffered solution (pH 8.0) comprising 0.5 mmol/L ATP, 0.005% bridge 35, 35 mmol/L ammonium acetate, 8 mmol/L magnesium chloride, 4.6% glycerol, and 1 mmol/L dithiothreitol. To the reaction mixture, H19 was added to bring the reaction to an end; thereafter, the supercoiled pBR322/relaxed pBR322 ratio was detected at excitation wavelength/emission wavelength=485 nm/535 nm. An inhibition curve was obtained by allowing the analyte compound to be present at varying concentrations during the reaction described above.

[3] = Method 2, read-out: E. Coli Gyrase supercoiling IC50

| SMILES | MIC [1] [µg/mL] | IC50 [2] [nM] | IC50 [2, 3] [nM] |
| --- | --- | --- | --- |
| CNc1cc(F)cc2c(NCCN)c(C(=O)Nc3ccc(C(=O)O)cc3)c(=O)[nH]c12.O=CO [Example 131, 4-([4-[(2-Aminoethyl)amino]-6-fluoro-8-(methylamino)-2-oxo-1,2-dihydroquinoline-3-carbonyl]amino)benzoic Acid-Formate] | > 16 | 0.94 | – |
| CNc1cc(F)cc2cc(C(=O)Nc3ccc(C(=O)NCCN4CCOCC4)cc3CN(C)C3CCN(C)CC3)c(=O)[nH]c12 [Example 84, 6-fluoro-8-(methylamino)-N-(2-{[methyl(1-methylpiperidine-4-yl)amino]methyl}-4-{[2-(morpholine-4-yl)ethyl]carbamoyl}phenyl)-2-oxo-1,2-dihydroquinoline-3-carboxamide] | > 32 | – | 11.4 |
| CNc1cc(F)cc2cc(C(=O)Nc3ccc(C(=O)NO)cc3)c(=O)[nH]c12 [Example 92, 6-Fluoro-N-[4-(hydroxycarbamoyl)phenyl]-8-(methylamino)-2-oxo-1,2-dihydroquinoline-3-carboxamide] | > 4 | – | 2.56 |
| CCc1cc(C(=O)NCCN2CCOCC2)ccc1NC(=O)c1cc2cc(F)cc(NC)c2[nH]c1=O [Example 94, N-(2-ethyl-4-{[2-(morpholine-4-yl)ethyl]carbamoyl}phenyl)-6-fluoro-8-(methylamino)-2-oxo-1,2-dihydroquinoline-3-carboxamide] | > 2 | – | 131 |
| CNc1cccc2cc(C(=O)NCc3cccc(C(=O)O)c3)c(=O)[nH]c12 [Example 168, 3-({[8-(methylamino)-2-oxo-1,2-dihydroquinoline-3-carbonyl]amino}methyl)benzoic acid] | > 32 | – | 1670 |
| CCCCCN(CCCCC)Cc1cc(C(=O)O)ccc1NC(=O)c1cc2cncc(NC)c2[nH]c1=O [Example 112, 3-[(dipentylamino)methyl]-4-{[8-(methylamino)-2-oxo-1,2-dihydro-1,6-naphthyridine-3-carbonyl]amino}benzoic acid] | > 64 | – | 4.13 |
| CNCCNc1c(C(=O)Nc2ccc(C(=O)O)cc2)c(=O)[nH]c2c(NC)cc(F)cc12.O=CO [Example 141, 4-{[6-fluoro-8-(methylamino)-4-{[2-(methylamino)ethyl]amino}-2-oxo-1,2-dihydroquinoline-3-carobnyl]amino}benzoic acid-formate] | > 16 | 2.09 | – |
| CNc1cc(F)cc2cc(C(=O)Nc3ccc(C(=O)O)cc3CCCCN(C)C)c(=O)[nH]c12 [Example 126, 3-[4-(dimethylamino)butyl]-4-{[6-fluoro-8-(methylamino)-2-oxo-1,2-dihydroquinoline-3-carbonyl]amino}benzoic acid] | > 8 | – | 22 |
| CCOC(=O)c1ccc(NC(=O)c2c(O)c3cc(F)cc(NC)c3[nH]c2=O)cc1 [Example 127, Ethyl 4-[[6-fluoro-4-hydroxy-8-(methylamino)-2-oxo-1,2-dihydroquinoline-3-carbonyl]amino]benzoate] | > 16 | – | 214 |
| CNc1cc(F)cc2cc(C(=O)Nc3ccc(C(=O)O)cc3CCCCO)c(=O)[nH]c12 [Example 120, 4-[[6-Fluoro-8-(methylamino)-2-oxo-1,2-dihydroquinoline-3-carbonyl]amino]-3-(4-hydroxybutyl)benzoic Acid] | > 32 | – | 32.5 |
| CNc1cc(F)cc2cc(C(=O)Nc3ccc(C(=O)O)cc3/C=C/CCO)c(=O)[nH]c12 [Example 119, 4-[[6-Fluoro-8-(methylamino)-2-oxo-1,2-dihydroquinoline-3-carbonyl]amino]-3-[(1E)-4-hydroxybut-1-en-1-yl]benzoic Acid] | > 64 | – | 20.6 |
| CNc1cc(F)cc2cc(C(=O)Nc3ccc(C(=O)O)cc3CCN(C)C)c(=O)[nH]c12 [Example 115, 3-[2-(dimethylamino)ethyl]-4-{[6-fluoro-8-(methylamino)-2-oxo-1,2-dihydroquinoline-3-carbonyl]amino} benzoic acid] | > 4 | – | 4.57 |
| CNc1cc(F)cc2cc(C(=O)Nc3ccc(C(=O)O)cc3CCN(C)C3CCCCC3)c(=O)[nH]c12 [Example 111, 3-{2-[cyclohexyl (methyl)amino]ethyl}-4-{[6-fluoro-8-(methylamino)-2-oxo-1,2-dihydroquinoline-3-carbonyl]amino} benzoic acid] | > 32 | – | 2.94 |
| CNc1cc(F)cc2c(NCCN3CCOCC3)c(C(=O)Nc3ccc(C(=O)O)cc3)c(=O)[nH]c12.O=CO [Example 143, 4-{[6-fluoro-8-(methylamino)-4-{[2-(morpholine-4-yl)ethyl]amino}-2-oxo-1,2-dihydroquinoline-3-carbonyl]amino}benzoic acid-formate] | > 64 | 14.6 | – |
| CNc1cc(F)cc2cc(CNc3ccc(C(=O)O)cc3CN(C)C3CCCCC3)c(=O)[nH]c12 [Example 128, 3-[[Cyclohexyl(methyl)amino]methyl]-4-([[6-fluoro-8-(methylamino)-2-oxo-1,2-dihydroquinolin-3-yl]methyl]amino)benzoic Acid] | > 16 | – | 340 |
| CNc1cccc2cc(C(=O)Nc3cnc(NCCN4CCN(C)CC4)nc3)c(=O)[nH]c12 [Example 34, 8-(methylamino)-N-(2-{[2-(4-methylpiperazine-1-yl)ethyl]amino}pyrimidine-5-yl)-2-oxo-1,2-dihydroquinoline-3-carboxamide] | > 64 | – | 23.2 |
| CNc1cc(F)cc2cc(C(=O)Nc3ccc(C(=O)O)cc3CNC3CCCCC3)c(=O)[nH]c12.O=C(O)C(F)(F)F [Example 113, 3-[(cyclohexylamino)methyl]-4-{[6-fluoro-8-(methylamino)-2-oxo-1,2-dihydroquinoline-3-carbonyl]amino}benzoic acid-trifluoroacetate] | 32 | 0.26 | – |
| CNc1cccc2cc(C(=O)Nc3ccc(CC(=O)O)cc3)c(=O)[nH]c12 [Example 166, (4-{[8-(methylamino)-2-oxo-1,2-dihydroquinoline-3-carbonyl]amino}phenyl)acetic acid] | > 16 | – | 18.1 |
| CNc1cc(F)cc2c(NC[C@H]3C[C@H](N)C3)c(C(=O)Nc3ccc(C(=O)O)cc3)c(=O)[nH]c12.O=CO [Example 136, 4-{[4-{[(trans-3-aminocyclobutyl)methyl]amino}-6-fluoro-8-(methylamino)-2-oxo-1,2-dihydroquinoline-3-carbonyl]amino}benzoic acid-formate] | > 32 | 1.28 | – |
| CNc1cc(F)cc2cc(C(=O)Nc3ccnn3C)c(=O)[nH]c12 [Example 89, 6-fluoro-8-(methylamino)-N-(1-methyl-1H-pyrazole-5-yl)-2-oxo-1,2-dihydroquinoline-3-carboxamide] | > 8 | – | 29.9 |
| CNc1cc(F)cc2cc(C(=O)Nc3ccc(C(=O)O)cc3CN(CCCN(C)C)CCCN(C)C)c(=O)[nH]c12 [Example 105, 3-({bis[3-(dimethylamino)propyl]amino}methyl)-4-{[6-fluoro-8-(methylamino)-2-oxo-1,2-dihydroquinoline-3-carbonyl]amino} benzoic acid] | > 32 | – | 29.8 |
| CNc1cc(F)cc2cc(C(=O)Nc3ccc(C(=O)O)cc3CN(C)C3CC3)c(=O)[nH]c12 [Example 97, 3-{[cyclopropyl (methyl)amino]methyl}-4-{[6-fluoro-8-(methylamino)-2-oxo-1,2-dihydroquinoline-3-carbonyl]amino} benzoic acid] | > 8 | 0.6 | – |
| CNCCCc1c(C(=O)Nc2ccc(C(=O)O)cc2)c(=O)[nH]c2c(NC)cc(F)cc12.O=C(O)C(F)(F)F [Example 134, 4-([6-Fluoro-8-(methylamino)-4-[3-(methylamino)propyl]-2-oxo-1,2-dihydroquinoline-3-carbonyl]amino)benzoic Acid-Trifluoroacetate] | > 32 | 131 | – |
| CNc1cc(F)cc2cc(C(=O)Nc3ccc(C(=O)O)cc3N(C)C3CCCCC3)c(=O)[nH]c12 [Example 114, 3-[Cyclohexyl(methyl)amino]-4-[[6-fluoro-8-(methylamino)-2-oxo-1,2-dihydroquinoline-3-carbonyl]amino]benzoic Acid] | > 32 | – | 339 |
| CNc1cccc2cc(C(=O)Nc3cnc(NCc4csc(N)n4)nc3)c(=O)[nH]c12 [Example 35, N-(2-[[(2-Amino-1,3-thiazol-4-yl)methyl]amino]pyrimidin-5-yl)-8-(methylamino)-2-oxo-1,2-dihydroquinoline-3-carboxamide] | > 4 | – | 1.47 |
| CNc1cc(F)cc2cc(C(=O)Nc3ccc(C(=O)O)cc3CN3CCCC(N)C3)c(=O)[nH]c12.Cl (stereo not shown) [Example 109, 3-[(3-Aminopiperidin-1-yl)methyl]-4-[[6-fluoro-8-(methylamino)-2-oxo-1,2-dihydroquinoline-3-carbonyl]amino]benzoic acid-hydrochloride] | > 32 | 15.1 | – |
